Measurements taken from the supplement of paper PMC10307832.

compound: N#CC1(c2ccc(NC(=O)c3cccnc3NCc3ccncc3)cc2)CCCC1 [Apatinib] + Cc1cc(Nc2cc(N3CCN(C)CC3)nc(Sc3ccc(NC(=O)C4CC4)cc3)n2)n[nH]1 [Tozasertib] (partner 0.1 µM); test: relative viability (nuclei count vs DMSO), 5 days (fraction); higher = more cells survive; details: first compound 0.08 µM
Outline: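 Lung cancer cell lines were seeded in 1536-well plates and dosed by pin tool the next day, with either a single drug or a fixed anchor-drug dose combined with five library-drug doses (not always all listed) spaced in √10 steps. Five days later, one step fixed the cells and stained their nuclei (final 0.05% Triton X-100, 1% formaldehyde, 1 ug/ml Hoechst), and nuclei were counted on 4× images. Relative viability is the nuclei count in treated wells divided by the count in vehicle wells, and each value is the median of duplicate plates.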

| Cell Line | relative viability |
| --- | --- |
| COR-L23 | 0.263 |
| COR-L 105 | 0.387 |
| ChaGo-K-1 | 0.194 |
| EKVX | 0.369 |
| EMC-BAC-2 | 0.334 |
| EPLC-272H | 0.28 |
| H3255 | 0.775 |
| HARA | 0.119 |
| HCC-15 | 0.376 |
| HCC-44 | 1.23 |
| HCC-78 | 0.477 |
| HCC-366 | 0.11 |
| HCC-827 | 0.381 |
| HOP-62 | 0.442 |
| LC-2-ad | 0.516 |
| LCLC-97TM1 | 0.226 |
| LCLC-103H | 0.443 |
| LK-2 | 0.159 |
| LOU-NH91 | 0.741 |
| LU99A | 0.325 |
| LXF-289 | 0.211 |
| NCI-H23 | 0.374 |
| NCI-H322M | 0.454 |
| NCI-H358 | 0.113 |
| NCI-H441 | 0.672 |
| NCI-H520 | 0.445 |
| NCI-H522 | 0.48 |
| NCI-H1623 | 0.45 |
| NCI-H1648 | 0.484 |

same assay, conditions: first compound 0.253 µM

| Cell Line | relative viability |
| --- | --- |
| 201T | 0.878 |
| A-427 | 0.241 |
| ABC-1 | 0.177 |
| BEN | 0.601 |
| CAL-12T | 0.34 |
| COR-L23 | 0.165 |
| COR-L 105 | 0.313 |
| ChaGo-K-1 | 0.227 |
| EKVX | 0.404 |
| EMC-BAC-2 | 0.307 |
| H3255 | 0.697 |
| HARA | 0.129 |
| HCC-15 | 0.48 |
| HCC-44 | 1.12 |
| HCC-78 | 0.333 |
| HCC-366 | 0.0735 |
| HCC-827 | 0.388 |

| Cell Line | relative viability |
| --- | --- |
| HOP-62 | 0.403 |
| LC-2-ad | 0.522 |
| LCLC-97TM1 | 0.255 |
| LCLC-103H | 0.491 |
| LK-2 | 0.195 |
| LOU-NH91 | 0.729 |
| LU99A | 0.317 |
| LXF-289 | 0.247 |
| NCI-H23 | 0.516 |
| NCI-H322M | 0.426 |
| NCI-H358 | 0.103 |
| NCI-H441 | 0.569 |
| NCI-H520 | 0.427 |
| NCI-H522 | 0.487 |
| NCI-H1623 | 0.454 |
| NCI-H1648 | 0.346 |

same assay, conditions: first compound 0.8 µM

| Cell Line | relative viability |
| --- | --- |
| 201T | 0.897 |
| A-427 | 0.175 |
| ABC-1 | 0.165 |
| BEN | 0.492 |
| CAL-12T | 0.241 |
| COR-L23 | 0.149 |
| COR-L 105 | 0.355 |
| ChaGo-K-1 | 0.193 |
| EKVX | 0.395 |
| EMC-BAC-2 | 0.245 |
| EPLC-272H | 0.248 |
| H3255 | 0.795 |
| HARA | 0.121 |
| HCC-15 | 0.357 |
| HCC-44 | 0.75 |
| HCC-78 | 0.535 |
| HCC-366 | 0.0616 |

| Cell Line | relative viability |
| --- | --- |
| HCC-827 | 0.43 |
| HOP-62 | 0.329 |
| LC-2-ad | 0.466 |
| LCLC-97TM1 | 0.173 |
| LCLC-103H | 0.429 |
| LK-2 | 0.183 |
| LOU-NH91 | 0.618 |
| LU99A | 0.276 |
| LXF-289 | 0.171 |
| NCI-H23 | 0.339 |
| NCI-H322M | 0.437 |
| NCI-H358 | 0.0953 |
| NCI-H441 | 0.538 |
| NCI-H520 | 0.437 |
| NCI-H522 | 0.693 |
| NCI-H1623 | 0.451 |
| NCI-H1648 | 0.563 |

same assay, conditions: first compound 2.53 µM

| Cell Line | relative viability |
| --- | --- |
| 201T | 0.808 |
| A-427 | 0.188 |
| ABC-1 | 0.178 |
| BEN | 0.452 |
| CAL-12T | 0.198 |
| COR-L23 | 0.143 |
| COR-L 105 | 0.351 |
| ChaGo-K-1 | 0.208 |
| EKVX | 0.224 |
| EMC-BAC-2 | 0.229 |
| EPLC-272H | 0.18 |
| H3255 | 0.521 |
| HARA | 0.0894 |
| HCC-15 | 0.248 |
| HCC-44 | 0.844 |
| HCC-78 | 0.289 |
| HCC-366 | 0.0574 |

| Cell Line | relative viability |
| --- | --- |
| HCC-827 | 0.413 |
| HOP-62 | 0.257 |
| LC-2-ad | 0.462 |
| LCLC-97TM1 | 0.2 |
| LCLC-103H | 0.42 |
| LK-2 | 0.152 |
| LOU-NH91 | 0.601 |
| LU99A | 0.231 |
| LXF-289 | 0.175 |
| NCI-H23 | 0.243 |
| NCI-H322M | 0.441 |
| NCI-H358 | 0.108 |
| NCI-H441 | 0.533 |
| NCI-H520 | 0.409 |
| NCI-H522 | 0.504 |
| NCI-H1623 | 0.417 |
| NCI-H1648 | 0.366 |

same assay, conditions: first compound 8 µM

| Cell Line | relative viability |
| --- | --- |
| 201T | 0.615 |
| A-427 | 0.147 |
| ABC-1 | 0.191 |
| BEN | 0.42 |
| CAL-12T | 0.191 |
| COR-L23 | 0.129 |
| COR-L 105 | 0.304 |
| ChaGo-K-1 | 0.178 |
| EKVX | 0.135 |
| EMC-BAC-2 | 0.194 |
| EPLC-272H | 0.144 |
| H3255 | 0.435 |
| HARA | 0.0993 |
| HCC-15 | 0.163 |
| HCC-44 | 0.494 |
| HCC-78 | 0.317 |

| Cell Line | relative viability |
| --- | --- |
| HCC-366 | 0.0476 |
| HCC-827 | 0.311 |
| HOP-62 | 0.192 |
| LC-2-ad | 0.446 |
| LCLC-97TM1 | 0.165 |
| LCLC-103H | 0.357 |
| LK-2 | 0.175 |
| LOU-NH91 | 0.546 |
| LU99A | 0.203 |
| LXF-289 | 0.132 |
| NCI-H23 | 0.197 |
| NCI-H322M | 0.503 |
| NCI-H358 | 0.0888 |
| NCI-H441 | 0.428 |
| NCI-H520 | 0.417 |
| NCI-H522 | 0.567 |
